# ChEMBL document CHEMBL1126986, “Nonsteroidal inhibitors of human type I steroid 5-alpha-reductase” (J Med Chem, 1993)
# pIC50: −log10 of the molar value.
# Target: T1, 3-oxo-5-alpha-steroid 4-dehydrogenase 1 (Homo sapiens, UniProt P18405)
# T1 sequence (P18405 whole entry): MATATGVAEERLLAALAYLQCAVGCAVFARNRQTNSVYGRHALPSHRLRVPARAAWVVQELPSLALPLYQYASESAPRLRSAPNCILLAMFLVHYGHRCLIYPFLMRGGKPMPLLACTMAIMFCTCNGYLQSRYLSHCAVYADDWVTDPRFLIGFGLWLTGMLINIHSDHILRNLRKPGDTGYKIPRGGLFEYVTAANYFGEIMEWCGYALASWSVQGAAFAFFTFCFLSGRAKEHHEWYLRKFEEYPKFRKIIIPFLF
# Assay: Compound was tested for inhibition of Type I 5-alpha-reductase in Human genital skin (Hs68) foreskin fibroblast cells.
# Type: cell-based
row,pIC50,SMILES
1,7.21,CC(C)(C)NC(=O)[C@H]1CC[C@H]2[C@@H]3CC[C@H]4NC(=O)C=C[C@]4(C)[C@H]3CC[C@]12C [FINASTERIDE]

# Target: T1, 3-oxo-5-alpha-steroid 4-dehydrogenase 1
# Assay: In vitro inhibition of DHT production in Hs 68 (human genital fibroblast) cells.
row,SMILES,pIC50
1,O=C1CCC2=C(CCc3cccc(F)c32)N1,5.00
2,CC12CCC(=O)NC1=CCc1cc(Cl)ccc12 (stereo not drawn),5.44
3,CN1C(=O)CC[C@@H]2c3ccccc3CC[C@H]21,6.25
4,O=C1CCC2=C(CCc3c(F)cccc32)N1,5.49
5,O=C1CCC2=C(CCc3ccc(F)cc32)N1,5.64
6,O=C1CCC2=C(CCc3cc(Cl)ccc32)N1,6.34
7,CC(C)(C)NC(=O)[C@H]1CC[C@H]2[C@@H]3CC=C4C=C(C(=O)O)CC[C@]4(C)[C@H]3CC[C@]12C [EPRISTERIDE],5.12
8,C[C@]12CCC(=O)N[C@@H]1CCc1cc(Cl)ccc12,5.74
9,O=C1CCC2=C(CCc3ccccc32)N1,5.19
10,O=C1CCC2=C(CCc3cc(F)ccc32)N1,6.22

# The next lines start with the values.
row,pIC50,SMILES
1,7.39,CN1C(=O)CC[C@@H]2c3ccc(Cl)cc3CC[C@@H]21
2,7.77,CN1C(=O)CC[C@]2(C)c3ccc(Cl)cc3CC[C@@H]12
3,7.52,CN1C(=O)CCC2=C1CCc1cc(Cl)ccc12
4,7.22,O=C1CC[C@@H]2c3ccc(Cl)cc3CC[C@H]2N1
5,6.92,CN1C(=O)CCC2(C)C1=CCc1cc(Cl)ccc12 (stereo not drawn)
6,7.46,CN1C(=O)CC[C@@H]2c3ccc(F)cc3CC[C@H]21
7,6.49,CN1C(=O)CC[C@@H]2c3ccc(F)cc3CC[C@@H]21
8,6.92,COc1ccc2c(c1)CC[C@@H]1[C@@H]2CCC(=O)N1C
9,8.10,CN1C(=O)CC[C@@H]2c3ccc(Cl)cc3CC[C@H]21 [BEXLOSTERIDE]
10,7.96,Cc1ccc2c(c1)CC[C@@H]1[C@@H]2CCC(=O)N1C

# Target: T2, 3-oxo-5-alpha-steroid 4-dehydrogenase 2 (Homo sapiens, UniProt P31213)
# T2 sequence (P31213 whole entry): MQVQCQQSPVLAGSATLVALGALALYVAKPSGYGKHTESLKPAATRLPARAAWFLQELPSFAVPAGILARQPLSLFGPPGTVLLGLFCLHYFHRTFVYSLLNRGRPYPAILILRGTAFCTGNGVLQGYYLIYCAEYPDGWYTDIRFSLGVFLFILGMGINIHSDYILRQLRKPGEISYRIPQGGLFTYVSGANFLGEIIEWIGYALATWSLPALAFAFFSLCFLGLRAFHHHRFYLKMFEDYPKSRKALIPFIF
# Assay: Compound was tested for inhibition of Type II 5-alpha-reductase in Human Prostate Homogenates (HPH)
row,pIC50,SMILES
1,8.10,CC(C)(C)NC(=O)[C@H]1CC[C@H]2[C@@H]3CC=C4C=C(C(=O)O)CC[C@]4(C)[C@H]3CC[C@]12C [EPRISTERIDE]
2,< 5.00,CN1C(=O)CC[C@@H]2c3ccc(Cl)cc3CC[C@H]21 [BEXLOSTERIDE]
